Experimental data as given in US20140314857A1, “FORMULATIONS FOR ENHANCED BIOAVAILABILITY OF ZANAMIVIR” (priority 2012, published 2014).

Experiment: Intravenous and intraduodenal (bolus) bioavailability of zanamivir from Capmul MCM L8 25, 50, 75 µL (Example 7)
Conditions: male, Sprague-Dawley, rat, in vivo; for concentration at 0.83 hr / concentration at 1 hr / concentration at 1.5 hr / concentration at 2 hr / concentration at 0.25 hr / concentration at 0.5 hr / concentration at 0.033 hr / concentration at 0.083 hr: 1.5 mg/animal, Plasma concentration; for clearance / half-life / Vd / Tmax: 1.5 mg; for clearance: CL; for half-life: T1/2, IV 1.5 mg/animal; for Vd: Vss
Source text: Male Sprague-Dawley rats (Hilltop Labs), 3 animals per treatment group, 250-350 grams in weight, were fitted with a jugular vein cannula (JVC). Animals intended for intraduodenal dosing were also fitted with one or more intraduodenal cannula (IDC) and those intended for intravenous dosing were fitted with a second JVC. Food was withheld from the animals for a minimum of twelve hours prior to test article administration and was returned approximately four hours post-dose. Water was supplied ad libitum.
Intraduodenal doses composed of 1.5 mg of zanamivir and varying amounts of an enhancer (glycerol or Capmul MCM L8) were injected directly into the duodenum via the IDC. Intravenous dosing was conducted by the injection of 1.5 mg of zanamivir in 200 μL of PBS through a JVC. For some experiments, the absorption enhancer was administered intraduodenally 2 hr prior to administering 1.5 mg of zanamivir in PBS through a second IDC. Each intraduodenal dose was followed with the introduction of a small air bubble (˜10 μL) in the cannula followed by a flush of 125 μL of PBS to ensure the dose was given in full. The volume of PBS used for cannula flush was consistent across the treatment groups. The cannula was tied to prevent the PBS remaining in the cannula from entering the duodenum.
Blood samples collected via the JVC, approximately 400 μL each, were obtained at 2 min, 5 min, 15 min, 30 min, 60 min, 90 min, and 120 min, with sodium heparin used as an anti-coagulant. Each sample was placed into a chilled tube containing the anticoagulant and kept on ice until centrifugation at 4° C., 3,000×g, for 5 min. The plasma supernatants were stored at −70° C. until LC-MS analysis.
Dosing solution samples were assayed by LC-MS/MS using electrospray ionization. The chromatographic system consisted of Perkin Elmer series 200 micropumps and autosampler equipped with a Waters Atlantic® HILIC Silica 3 μM, 2.1×50 mm column. The mass spectrometer was a PE Sciex API 4000 with electrospray interface in multiple reaction monitoring mode. […] Stock solutions (1 mg/mL zanamivir) were prepared in water. Standards (eight concentrations) were prepared in the appropriate matched matrix (HBSSg or Sprague-Dawley rat plasma containing sodium heparin) and diluted 50-fold with methanol. Experimental samples were treated identically.
Standards and samples were prepared in Sprague Dawley rat plasma containing sodium heparin as an anticoagulant. An eight-point calibration curve was prepared at concentrations of 1000, 750, 500, 250, 100, 50, 25, and 10 ng/mL by serial dilution. Standard samples were treated identically to the study samples.
Plasma samples were extracted by protein precipitation in methanol.
In this example, the bioavailability of Zanamivir was evaluated after intraduodenal doses in male Sprague-Dawley rats. The test compound was dosed at 1.5 mg/animal through intravenous and intraduodenal routes from normal saline and Capmul MCM L8 formulations, respectively. Plasma levels were determined by LC-MS/MS analysis. Pharmacokinetic parameters were estimated by a non-compartmental model using WinNonlin v5.2.1 software.
Each ID dose in groups 2-4 will be followed with a small air bubble ([…]) and a flush of […] of PBS to insure the dose is given in full. The volume of PBS used for cannulae flush will be maintained consistent across the animals and the treatment groups. The cannula will then be tied to help prevent the PBS remaining in the cannula from entering the duodenum.

[1] = ID bolus 1.5 mg/animal, 50 µL Capmul MCM L8, Ex.7, individual rats
[2] = ID bolus 1.5 mg/animal, 50 µL Capmul MCM L8, Ex.7, mean
[3] = intraduodenal bolus, 75 μL Capmul MCM L8, mean of 3 rats
[4] = intraduodenal bolus, 75 μL Capmul MCM L8, rat 963
[5] = intraduodenal bolus, 75 μL Capmul MCM L8, rat 964
[6] = intraduodenal bolus, 75 μL Capmul MCM L8, rat 965
[7] = iv, IV 1.5 mg/animal, Normal Saline, Ex.7, individual rats
[8] = iv, IV 1.5 mg/animal, Normal Saline, Ex.7, mean

## CC(=O)NC1C(NC(=N)N)C=C(C(=O)O)OC1C(O)C(O)CO (stereo not drawn) [Zanamivir, 5-acetamido-4-guanidino-6-(1,2,3-trihydroxypropyl)-5,6-dihydro-4H-pyran-2-carboxylic acid]
[1]
  concentration at 0.83 hr: 2620 ng/mL
  concentration at 1 hr: 695 ng/mL
  concentration at 1.5 hr: 216 ng/mL
  concentration at 2 hr: 103 ng/mL
[2]
  concentration at 0.83 hr: 2120 ng/mL
  concentration at 1 hr: 651 ng/mL
  concentration at 1.5 hr: 244 ng/mL
  concentration at 2 hr: 120 ng/mL
[3]
  concentration at 0.25 hr: 2390 ng/mL
  concentration at 0.5 hr: 1720 ng/mL
  concentration at 0.83 hr: 2570 ng/mL
  concentration at 1 hr: 828 ng/mL
  concentration at 1.5 hr: 349 ng/mL
  concentration at 2 hr: 154 ng/mL
[4]
  concentration at 0.25 hr: 2560 ng/mL
  concentration at 0.5 hr: 1820 ng/mL
  concentration at 0.83 hr: 2940 ng/mL
  concentration at 1 hr: 748 ng/mL
  concentration at 1.5 hr: 403 ng/mL
  concentration at 2 hr: 180 ng/mL
[5]
  concentration at 0.25 hr: 1710 ng/mL
  concentration at 0.5 hr: 1130 ng/mL
  concentration at 0.83 hr: 1690 ng/mL
  concentration at 1 hr: 807 ng/mL
  concentration at 1.5 hr: 273 ng/mL
  concentration at 2 hr: 121 ng/mL
[6]
  concentration at 0.25 hr: 2890 ng/mL
  concentration at 0.5 hr: 2200 ng/mL
  concentration at 0.83 hr: 3070 ng/mL
  concentration at 1 hr: 929 ng/mL
  concentration at 1.5 hr: 372 ng/mL
  concentration at 2 hr: 160 ng/mL
[7]
  clearance: 10.5 mL/min/kg
  Vd: 0.276 L/kg
  Tmax: 0 h
  concentration at 0.033 hr: 20900 ng/mL
  concentration at 0.083 hr: 11000 ng/mL
  concentration at 0.25 hr: 11000 ng/mL
  concentration at 0.5 hr: 6270 ng/mL
  concentration at 1 hr: 1560 ng/mL
  concentration at 1.5 hr: 741 ng/mL
  concentration at 2 hr: 278 ng/mL
[8]
  clearance: 10.2 mL/min/kg
  Vd: 0.271 ± 0.01 L/kg
  Tmax: 0 h
  concentration at 0.033 hr: 21400 ng/mL
  concentration at 0.083 hr: 12300 ng/mL
  concentration at 0.25 hr: 10700 ng/mL
  concentration at 0.5 hr: 6070 ng/mL
  concentration at 1 hr: 1760 ng/mL
  concentration at 1.5 hr: 755 ng/mL
  concentration at 2 hr: 310 ng/mL
iv, Normal Saline, Ex.7, individual rats
  half-life: 24.1 min
iv, Normal Saline, Ex.7, mean
  half-life: 23.8 ± 2.1 min
